What was measured:
Experiment in all cases: KinomeScan
Assay type in all cases: binding
Conditions in all cases: read-out: % Ctrl @ 10000 nM
ZAK = biological target: T1, ZAK (Homo sapiens, UniProt Q9NYL2)
T1 construct: host or cells: T7 phage grown in an E. coli host derived from BL21
Protocol: (§1) Kinase assays: Assays were performed as described in Fabian et al. (2005) Nature Biotechnology, vol. 23, p. 329. Kinase-tagged T7 phage strains were grown in parallel in 24 or 96-well blocks in an E. coli host derived from the BL21 strain. E. coli were grown to log-phase and infected with T7 phage from a frozen stock (multiplicity of infection ˜0.1) and incubated with shaking at 32° C. until lysis (−90 minutes). The lysates were centrifuged and filtered to remove cell debris. […] The liganded beads were blocked with excess biotin and washed with blocking buffer (SeaBlock (Pierce), 1% BSA, 0.05% Tween 20, 1 mM DTT) to remove unbound ligand and to reduce non-specific phage binding.
(§2) Test compounds were prepared as 40× stocks in DMSO and diluted into the aqueous environment. 2.5% DMSO was added to control assays lacking a test compound. All reactions were performed in polystyrene 96-well plates that had been pretreated with blocking buffer in a final volume of 0.04 ml. […] The phage titer in the eluates was measured by quantitative PCR.

TXK = biological target: T2, TXK (Homo sapiens, UniProt P42681)
T2 construct: host or cells: E. coli host derived from BL21, T7 phage
Protocol: as §1, §2

RIPK4 = biological target: T3, RIPK4 (Homo sapiens, UniProt P57078)
T3 construct: host or cells: E. coli host derived from BL21, T7 phage display
T3 sequence (P57078 whole entry): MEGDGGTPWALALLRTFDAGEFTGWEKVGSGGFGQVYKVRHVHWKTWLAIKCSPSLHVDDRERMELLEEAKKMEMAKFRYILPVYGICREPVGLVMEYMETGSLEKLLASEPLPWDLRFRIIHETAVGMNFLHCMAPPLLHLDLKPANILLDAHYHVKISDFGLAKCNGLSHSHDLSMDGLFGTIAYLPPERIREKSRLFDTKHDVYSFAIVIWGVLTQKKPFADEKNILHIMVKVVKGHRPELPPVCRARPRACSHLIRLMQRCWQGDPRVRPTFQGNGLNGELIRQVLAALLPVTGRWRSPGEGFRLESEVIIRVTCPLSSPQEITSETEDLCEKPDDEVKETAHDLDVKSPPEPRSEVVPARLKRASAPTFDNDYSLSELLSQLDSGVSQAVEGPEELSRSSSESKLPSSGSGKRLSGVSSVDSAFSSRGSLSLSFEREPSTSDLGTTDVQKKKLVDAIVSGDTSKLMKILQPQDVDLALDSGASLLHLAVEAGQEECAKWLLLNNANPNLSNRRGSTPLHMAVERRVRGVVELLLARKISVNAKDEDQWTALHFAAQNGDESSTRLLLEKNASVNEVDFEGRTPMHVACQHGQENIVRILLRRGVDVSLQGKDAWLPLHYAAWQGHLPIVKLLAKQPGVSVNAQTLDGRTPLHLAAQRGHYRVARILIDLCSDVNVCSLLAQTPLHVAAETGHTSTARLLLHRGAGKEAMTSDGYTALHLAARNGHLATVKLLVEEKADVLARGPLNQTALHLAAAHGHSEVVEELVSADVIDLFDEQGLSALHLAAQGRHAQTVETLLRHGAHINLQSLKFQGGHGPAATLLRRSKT
Protocol: as §1, §2

FGFR3(G697C) = biological target: T4, FGFR3(G697C) (Homo sapiens, UniProt P22607, G697C)
T4 construct: host or cells: T7 phage in E. coli host derived from BL21
T4 sequence (P22607 23-806 G697C): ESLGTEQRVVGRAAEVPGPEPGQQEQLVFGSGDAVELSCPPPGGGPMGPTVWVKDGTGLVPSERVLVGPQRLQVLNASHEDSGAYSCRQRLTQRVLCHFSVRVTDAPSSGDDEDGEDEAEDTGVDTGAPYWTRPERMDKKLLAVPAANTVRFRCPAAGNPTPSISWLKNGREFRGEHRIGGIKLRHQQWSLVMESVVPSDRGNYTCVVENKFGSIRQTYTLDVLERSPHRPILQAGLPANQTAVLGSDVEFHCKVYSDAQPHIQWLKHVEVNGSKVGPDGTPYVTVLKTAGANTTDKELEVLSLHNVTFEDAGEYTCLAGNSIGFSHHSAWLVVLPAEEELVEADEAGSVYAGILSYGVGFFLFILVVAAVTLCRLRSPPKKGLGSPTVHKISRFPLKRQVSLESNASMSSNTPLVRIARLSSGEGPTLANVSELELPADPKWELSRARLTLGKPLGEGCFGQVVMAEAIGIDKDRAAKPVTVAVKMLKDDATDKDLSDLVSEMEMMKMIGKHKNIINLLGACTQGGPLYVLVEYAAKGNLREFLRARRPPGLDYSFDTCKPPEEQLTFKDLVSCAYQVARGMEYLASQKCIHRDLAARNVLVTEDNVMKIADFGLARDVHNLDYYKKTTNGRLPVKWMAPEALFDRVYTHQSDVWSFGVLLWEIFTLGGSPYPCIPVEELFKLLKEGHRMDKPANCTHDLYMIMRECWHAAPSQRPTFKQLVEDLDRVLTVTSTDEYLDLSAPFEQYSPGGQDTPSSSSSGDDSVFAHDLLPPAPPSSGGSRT
Protocol: as §1, §2

EPHA1 = biological target: T5, EPHA1 (Homo sapiens, UniProt P21709)
T5 construct: purchased Ambit Biosciences Corp; host or cells: T7 phage in E. coli host derived from BL21
Protocol: as §1, §2

AXL = biological target: T6, AXL (Homo sapiens, UniProt P30530)
T6 construct: host or cells: E. coli host derived from BL21
Protocol: as §1, §2

MAP4K5 = biological target: T7, MAP4K5 (Homo sapiens, UniProt Q9Y4K4)
T7 construct: host or cells: E. coli host derived from the BL21 strain, infected with T7 phage
Protocol: as §1, §2

MAPKAPK5 = biological target: T8, MAPKAPK5 (Homo sapiens, UniProt Q8IW41)
T8 construct: host or cells: E. coli host derived from the BL21 strain, infected with T7 phage
Protocol: as §1, §2

PIK3CB = biological target: T9, PIK3CB (Homo sapiens, UniProt P42338)
T9 construct: host or cells: E. coli host derived from BL21, infected with T7 phage
Protocol: as §1, §2

[1] = biological target: T10, RPS6KA4(Kin.Dom.-2-C-terminal) (Homo sapiens, UniProt O75676)
T10 construct: RPS6KA4(KIN.DOM.2); host or cells: E. coli host derived from BL21, T7 phage display
Protocol: as §1, §2

TRKB = biological target: T11, TRKB (Homo sapiens, UniProt Q16620)
T11 construct: host or cells: E. coli host derived from BL21, T7 phage
Protocol: as §1, §2

ABL1(T315I) = biological target: T12, ABL1(T315I) (Homo sapiens, UniProt P00519, T315I)
T12 construct: host or cells: E. coli (BL21-derived), T7 phage lysate
Protocol: as §1, §2

FLT3(D835H) = biological target: T13, FLT3(D835H) (Homo sapiens, UniProt P36888, D835H)
T13 construct: host or cells: T7 phage in E. coli host derived from BL21
Protocol: as §1, §2

CLK3 = biological target: T14, CLK3 (Homo sapiens, UniProt P49761)
T14 construct: host or cells: T7 phage in E. coli host derived from BL21
T14 sequence (P49761 whole entry): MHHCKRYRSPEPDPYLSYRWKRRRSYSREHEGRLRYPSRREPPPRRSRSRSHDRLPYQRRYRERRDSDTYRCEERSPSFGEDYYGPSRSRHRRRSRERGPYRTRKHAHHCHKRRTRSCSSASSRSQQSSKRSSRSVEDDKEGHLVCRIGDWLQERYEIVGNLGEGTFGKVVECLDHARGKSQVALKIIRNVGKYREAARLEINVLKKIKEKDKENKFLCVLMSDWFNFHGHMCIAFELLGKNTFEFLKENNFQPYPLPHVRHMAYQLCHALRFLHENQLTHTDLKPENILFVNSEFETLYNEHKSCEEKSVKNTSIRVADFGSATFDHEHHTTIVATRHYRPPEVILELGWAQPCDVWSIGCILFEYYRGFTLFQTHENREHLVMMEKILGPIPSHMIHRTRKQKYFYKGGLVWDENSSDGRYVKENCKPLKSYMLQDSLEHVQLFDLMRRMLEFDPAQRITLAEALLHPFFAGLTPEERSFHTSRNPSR
Protocol: as §1, §2

TESK1 = biological target: T15, TESK1 (Homo sapiens, UniProt Q15569)
T15 construct: host or cells: T7 phage grown in E. coli (BL21-derived)
Protocol: as §1, §2

MARK4 = biological target: T16, MARK4 (Homo sapiens, UniProt Q96L34)
T16 construct: host or cells: E. coli host derived from the BL21 strain, infected with T7 phage
Protocol: as §1, §2

DYRK1B = biological target: T17, DYRK1B (Homo sapiens, UniProt Q9Y463)
T17 construct: purchased Ambit Biosciences Corp (KinomeScan); host or cells: T7 phage in E. coli host derived from BL21
Protocol: as §1, §2

DDR2 = biological target: T18, DDR2 (Homo sapiens, UniProt Q16832)
T18 construct: purchased Ambit Biosciences Corp (KinomeScan); host or cells: T7 phage in E. coli host derived from BL21
T18 sequence (Q16832 22-855): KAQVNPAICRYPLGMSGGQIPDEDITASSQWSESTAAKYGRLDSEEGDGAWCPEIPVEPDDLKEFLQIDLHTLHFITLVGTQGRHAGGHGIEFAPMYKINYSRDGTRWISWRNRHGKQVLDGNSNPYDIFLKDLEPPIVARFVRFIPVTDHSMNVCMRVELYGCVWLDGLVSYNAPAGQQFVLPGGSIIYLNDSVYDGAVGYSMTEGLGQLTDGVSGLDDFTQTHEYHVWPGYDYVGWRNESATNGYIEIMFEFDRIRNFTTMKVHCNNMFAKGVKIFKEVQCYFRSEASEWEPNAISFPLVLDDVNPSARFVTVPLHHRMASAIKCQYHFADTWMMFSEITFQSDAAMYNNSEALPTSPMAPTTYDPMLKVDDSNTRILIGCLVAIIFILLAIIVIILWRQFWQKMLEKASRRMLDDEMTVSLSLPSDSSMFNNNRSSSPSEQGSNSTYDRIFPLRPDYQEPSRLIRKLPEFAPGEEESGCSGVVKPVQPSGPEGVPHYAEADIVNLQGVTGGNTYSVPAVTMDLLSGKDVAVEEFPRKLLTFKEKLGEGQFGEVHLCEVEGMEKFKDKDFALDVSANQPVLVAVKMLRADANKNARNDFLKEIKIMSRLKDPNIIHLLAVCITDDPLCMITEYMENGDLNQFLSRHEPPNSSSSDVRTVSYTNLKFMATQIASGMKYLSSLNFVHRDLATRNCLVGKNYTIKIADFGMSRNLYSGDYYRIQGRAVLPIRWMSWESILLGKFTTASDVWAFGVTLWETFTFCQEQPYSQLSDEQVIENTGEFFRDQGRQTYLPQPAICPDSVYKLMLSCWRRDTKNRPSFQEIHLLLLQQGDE
Protocol: as §1, §2

INSR = biological target: T19, INSR (Homo sapiens, UniProt P06213)
T19 construct: host or cells: T7 phage grown in E. coli host derived from BL21
Protocol: as §1, §2

GSK3A = biological target: T20, GSK3A (Homo sapiens, UniProt P49840)
T20 construct: host or cells: T7 phage in E. coli host derived from BL21
T20 sequence (P49840 whole entry): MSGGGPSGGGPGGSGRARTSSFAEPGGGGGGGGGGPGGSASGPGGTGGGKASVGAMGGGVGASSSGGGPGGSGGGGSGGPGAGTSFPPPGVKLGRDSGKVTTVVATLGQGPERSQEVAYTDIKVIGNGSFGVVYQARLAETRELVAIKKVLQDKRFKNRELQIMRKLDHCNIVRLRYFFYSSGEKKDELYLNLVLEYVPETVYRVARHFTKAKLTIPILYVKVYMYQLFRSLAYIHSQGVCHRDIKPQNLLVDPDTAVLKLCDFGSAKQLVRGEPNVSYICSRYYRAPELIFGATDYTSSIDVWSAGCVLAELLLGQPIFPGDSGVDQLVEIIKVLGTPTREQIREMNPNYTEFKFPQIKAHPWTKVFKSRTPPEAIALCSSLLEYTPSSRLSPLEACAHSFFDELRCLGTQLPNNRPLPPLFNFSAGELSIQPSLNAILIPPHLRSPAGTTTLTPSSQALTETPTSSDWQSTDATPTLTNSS
Protocol: as §1, §2

ACVR2B = biological target: T21, ACVR2B (Homo sapiens, UniProt Q13705)
T21 construct: host or cells: E. coli (BL21-derived), T7 phage lysate
Protocol: as §1, §2

BMPR2 = biological target: T22, BMPR2 (Homo sapiens, UniProt Q13873)
T22 construct: host or cells: E. coli host derived from BL21
Protocol: as §1, §2

MEK3 = biological target: T23, MEK3 (Homo sapiens, UniProt P46734)
T23 construct: host or cells: E. coli host derived from the BL21 strain, infected with T7 phage
Protocol: as §1, §2

TIE2 = biological target: T24, TIE2 (Homo sapiens, UniProt Q02763)
T24 construct: host or cells: E. coli host derived from BL21, T7 phage
Protocol: as §1, §2

HCK = biological target: T25, HCK (Homo sapiens, UniProt P08631)
T25 construct: host or cells: T7 phage in E. coli host derived from BL21
Protocol: as §1, §2

CSK = biological target: T26, CSK (Homo sapiens, UniProt P41240)
T26 construct: host or cells: T7 phage in E. coli host derived from BL21
Protocol: as §1, §2

JNK1 = biological target: T27, JNK1 (Homo sapiens, UniProt P45983)
T27 construct: host or cells: T7 phage grown in E. coli host derived from BL21
Protocol: as §1, §2

DMPK = biological target: T28, DMPK (Homo sapiens, UniProt Q09013)
T28 construct: purchased Ambit Biosciences Corp (KinomeScan); host or cells: T7 phage in E. coli host derived from BL21
Protocol: as §1, §2

MLK3 = biological target: T29, MLK3 (Homo sapiens, UniProt Q16584)
T29 construct: host or cells: T7 phage grown in E. coli host derived from BL21
Protocol: as §1, §2

PIP5K2B = biological target: T30, PIP5K2B (Homo sapiens, UniProt P78356)
T30 construct: host or cells: T7 phage in E. coli host derived from BL21
T30 sequence (P78356 whole entry): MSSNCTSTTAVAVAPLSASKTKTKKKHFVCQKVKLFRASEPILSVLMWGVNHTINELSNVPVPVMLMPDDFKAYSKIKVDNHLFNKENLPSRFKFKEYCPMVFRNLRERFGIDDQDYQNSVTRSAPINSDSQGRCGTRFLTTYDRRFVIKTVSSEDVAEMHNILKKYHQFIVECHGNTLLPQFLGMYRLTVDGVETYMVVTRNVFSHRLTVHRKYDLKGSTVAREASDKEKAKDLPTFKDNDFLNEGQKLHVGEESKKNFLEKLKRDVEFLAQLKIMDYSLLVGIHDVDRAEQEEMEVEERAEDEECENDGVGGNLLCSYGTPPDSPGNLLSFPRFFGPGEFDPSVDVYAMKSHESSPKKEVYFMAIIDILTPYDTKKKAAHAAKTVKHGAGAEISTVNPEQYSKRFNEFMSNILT
Protocol: as §1, §2

STK16 = biological target: T31, STK16 (Homo sapiens, UniProt O75716)
T31 construct: host or cells: T7 phage grown in E. coli (BL21-derived)
T31 sequence (O75716 whole entry): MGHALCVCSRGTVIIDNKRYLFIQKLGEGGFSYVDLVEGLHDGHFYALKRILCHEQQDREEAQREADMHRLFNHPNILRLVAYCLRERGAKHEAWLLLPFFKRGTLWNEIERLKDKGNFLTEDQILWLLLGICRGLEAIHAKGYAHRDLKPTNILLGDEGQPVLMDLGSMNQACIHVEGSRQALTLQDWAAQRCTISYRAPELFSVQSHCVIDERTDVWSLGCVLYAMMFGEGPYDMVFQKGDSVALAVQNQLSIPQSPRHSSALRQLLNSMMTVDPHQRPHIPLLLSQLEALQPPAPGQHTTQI
Protocol: as §1, §2

MRCKB = biological target: T32, MRCKB (Homo sapiens, UniProt Q9Y5S2)
T32 construct: host or cells: T7 phage grown in E. coli host derived from BL21
Protocol: as §1, §2

FGFR2 = biological target: T33, FGFR2 (Homo sapiens, UniProt P21802)
T33 construct: host or cells: T7 phage in E. coli host derived from BL21
T33 sequence (P21802 22-821): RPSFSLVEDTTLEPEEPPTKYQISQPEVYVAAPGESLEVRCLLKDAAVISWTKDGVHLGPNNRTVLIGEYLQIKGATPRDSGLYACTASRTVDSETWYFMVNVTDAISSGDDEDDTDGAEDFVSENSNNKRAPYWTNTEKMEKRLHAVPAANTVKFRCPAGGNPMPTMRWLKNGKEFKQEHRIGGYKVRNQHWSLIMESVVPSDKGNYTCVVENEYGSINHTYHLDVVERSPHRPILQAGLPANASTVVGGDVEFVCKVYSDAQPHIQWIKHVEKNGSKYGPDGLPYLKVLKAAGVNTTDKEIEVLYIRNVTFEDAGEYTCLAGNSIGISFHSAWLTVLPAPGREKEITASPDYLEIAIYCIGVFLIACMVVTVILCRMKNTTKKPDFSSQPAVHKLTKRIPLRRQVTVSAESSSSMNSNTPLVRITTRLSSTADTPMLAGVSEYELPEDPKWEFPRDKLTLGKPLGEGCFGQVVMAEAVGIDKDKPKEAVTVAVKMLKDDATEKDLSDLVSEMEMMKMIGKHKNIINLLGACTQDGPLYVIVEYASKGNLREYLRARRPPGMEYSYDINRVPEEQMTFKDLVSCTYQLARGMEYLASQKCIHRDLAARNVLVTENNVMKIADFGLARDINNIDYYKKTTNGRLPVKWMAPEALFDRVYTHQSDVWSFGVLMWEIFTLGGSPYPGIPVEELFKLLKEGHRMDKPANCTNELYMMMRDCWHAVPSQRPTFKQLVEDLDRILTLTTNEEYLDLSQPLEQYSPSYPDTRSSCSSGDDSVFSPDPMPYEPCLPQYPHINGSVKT
Protocol: as §1, §2

With `C#Cc1cccc(Nc2ncnc3cc(OC)c(OCCCN4CCOCC4)cc23)c1` [NRC-2694, N-(3-ethynylphenyl)-7-methoxy-6-[3-(4-morpholinyl)propoxy]-4-quinazolinamine] the remaining binding at 10 µM (ZAK) was 74%, the remaining binding at 10 µM (TXK) was 39% and the remaining binding at 10 µM (RIPK4) was 96%. It also gave a remaining binding at 10 µM (FGFR3(G697C)) of 82%, a remaining binding at 10 µM (EPHA1) of 55% and a remaining binding at 10 µM (AXL) of 25%. It also gave a remaining binding at 10 µM (MAP4K5) of 23%, a remaining binding at 10 µM (MAPKAPK5) of 79% and a remaining binding at 10 µM (PIK3CB) of 100%. It also gave a remaining binding at 10 µM [1] of 8.9%, a remaining binding at 10 µM (TRKB) of 73% and a remaining binding at 10 µM (ABL1(T315I)) of 35%. For the same compound, the remaining binding at 10 µM (FLT3(D835H)) was 8.1%, the remaining binding at 10 µM (CLK3) was 45% and the remaining binding at 10 µM (TESK1) was 83%. The remaining binding at 10 µM (MARK4) was 100%, the remaining binding at 10 µM (DYRK1B) was 66% and the remaining binding at 10 µM (DDR2) was 76%. It also gave a remaining binding at 10 µM (INSR) of 90%, a remaining binding at 10 µM (GSK3A) of 75% and a remaining binding at 10 µM (ACVR2B) of 63%. For the same compound, the remaining binding at 10 µM (BMPR2) was 100%, the remaining binding at 10 µM (MEK3) was 100% and the remaining binding at 10 µM (TIE2) was 76%. For the same compound, the remaining binding at 10 µM (HCK) was 17%, the remaining binding at 10 µM (CSK) was 53% and the remaining binding at 10 µM (JNK1) was 99%. The remaining binding at 10 µM (DMPK) was 6.8%, the remaining binding at 10 µM (MLK3) was 72% and the remaining binding at 10 µM (PIP5K2B) was 49%. For the same compound, the remaining binding at 10 µM (STK16) was 100%, the remaining binding at 10 µM (MRCKB) was 71% and the remaining binding at 10 µM (FGFR2) was 100%.
